Test results taken from patent publication US20250282816A1, “THIOSTREPTON COMPOSITIONS AND PREPARATION THEREOF” (RS Oncology, LLC, priority 2021, published 2025).

Assays:
[1] = test system: ovarian cancer cell line SKOV3; assay: cell viability assay, crystal violet cell staining; format: cell-based; details: 48 hours treatment
Method: Commercial thiostrepton (TS) starting material (TS Non-GMP) and ultrapure TS (TS GMP) were diluted to 10 mM in sterile DMSO. Lots of TS were evaluated in a cell viability assay using the ovarian cancer cell line SKOV3 purchased from ATCC. Two replicate plates containing technical duplicates were set up for screening. Cells were plated at a density of 2,500 cells/well in 96-well plates and allowed to adhere for 24 hours prior to treatment. A starting concentration of 20 μM for each TS solution was serial diluted 1:1 covering a concentration range of 20 μM to 20 nM. Cells were incubated with treatments for 48 hours prior to fixation with 3% formaldehyde and crystal violet cell staining to determine residual cells remaining (100%=no cell death, 0%=complete cell death). FIG. 4. EC50 values (the concentration required to kill 50% of cells) were determined using a variable slope least square fit non-linear regression. FIG. 5.

[2] = Antibiotics-Microbial assay, USP <81>; format: cell-based; details: final product of the 2 kg scale cGMP process (GMP DS Lot 1); specification ≥900 IU/mg
Text: Materials and Methods. […] Identification by IR spectrum, USP <197K> • 2. Antibiotics-Microbial assay, USP <81>

## C=C(NC(=O)C(=C)NC(=O)c1csc(C2=N[C@@H]3c4csc(n4)[C@H]4NC(=O)c5csc(n5)[C@H]([C@](C)(O)[C@@H](C)O)NC(=O)[C@H]5CSC(=N5)/C(=C/C)NC(=O)[C@H]([C@@H](C)O)NC(=O)c5csc(n5)[C@]3(CC2)NC(=O)[C@H](C)NC(=O)C(=C)NC(=O)[C@H](C)NC(=O)[C@H]([C@@H](C)CC)N[C@@H]2C=Cc3c([C@H](C)O)cc(nc3[C@H]2O)C(=O)O[C@@H]4C)n1)C(N)=O [ultrapure TS, thiostrepton]
[1]; 20 μM to 20 nM, N=4 replicates (FIG. 4)
  biological activity as measured by % cell death of cancer cells, compared with commercial TS: better biological activity
[1]; variable slope non-linear regression, N=4 replicates, p<0.0001 (FIG. 5)
  biological activity as measured by EC50 (the concentration required to kill 50% of cells), compared with commercial TS: better biological activity
[2]
  Antibiotics-Microbial assay: 988 IU/mg
